Data on 13 molecules can be found in ChEMBL document CHEMBL1201862, “PubChem BioAssay data set” (2004).

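All cell lines were grown in 96-well plates and treated with compound for 48 hours. Abbreviation: GI50, concentration required for 50% inhibition of growth.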 Calls of active or inactive are those of the source. Rule as the data show it: active = GI50 up to about 1.1 µM and inactive = higher.

Among the test systems are KM12; NCI-H23; CAKI-1; SW-620; SF-268; SN12C; SF-539; U-251; DMS-273; RPMI-8226; SK-OV-3; UO-31; SNB-19; M19-MEL; KM-20L2.
Test in all cases: NCI anticancer screen, dose series, 48 h

For `CC(C)c1cccc(C(C)C)c1NC(=O)CCC(=O)NN`, the GI50 was > 100 µM (inactive) in the assay on KM12; > 100 µM (inactive) in the assay with NCI-H23; > 100 µM (inactive) in the assay with CAKI-1; 21.9 µM (inactive) in the assay on SW-620; > 100 µM (inactive) in the assay with SF-268; > 100 µM (inactive) with SN12C. The GI50 is > 100 µM (inactive) in the assay on SF-539; > 100 µM (inactive) in the assay with U-251; 61.5 µM (inactive) with DMS-273; 46.1 µM (inactive) in the assay on RPMI-8226; > 100 µM (inactive) in the assay with SK-OV-3; > 100 µM (inactive) with UO-31. The GI50 with SNB-19, with M19-MEL and in the assay with KM-20L2 was > 100 µM (inactive) in each case.

`O=C(CC/C(CC(=O)c1ccc(Cl)cc1)=N\O)Nc1cccc(Cl)c1`: the GI50 in the assay with KM12, in the assay on NCI-H23, in the assay on CAKI-1, with SW-620, with SF-268 and in the assay with SN12C was > 100 µM (inactive) in each case. The GI50 in the assay on SF-539, in the assay with U-251, in the assay with DMS-273, in the assay with RPMI-8226, in the assay on SK-OV-3 and in the assay on UO-31 was > 100 µM (inactive) in each case. The GI50 with SNB-19, in the assay with M19-MEL and in the assay on KM-20L2 was > 100 µM (inactive) throughout.

On to `COc1cc([C@@H]2c3cc4c(cc3[C@@H](NCc3cccc(C#N)c3)C3COC(=O)[C@@H]32)OCO4)cc(OC)c1O` (some centres undefined), for which the GI50 in the assay with KM12 was 1.62 µM (inactive); in the assay on NCI-H23, 0.428 µM (active); in the assay on CAKI-1 it was 1 µM (active); with SW-620, 0.646 µM (active); in the assay on SF-268 it was 2.22 µM (inactive); in the assay on SN12C, 0.448 µM (active). Further, the GI50 was 0.326 µM (active) in the assay on SF-539; 0.303 µM (active) in the assay on U-251; 0.349 µM (active) in the assay with DMS-273; 1.2 µM (inactive) in the assay with RPMI-8226; 1.53 µM (inactive) with SK-OV-3; 2.22 µM (inactive) with UO-31. The GI50 in the assay on SNB-19 is 1.1 µM (active); in the assay on M19-MEL it was 5.7 µM (inactive); in the assay on KM-20L2, 1.58 µM (inactive).

Consider `CC1=C(NC(=O)C(=O)NNC(=O)c2ccncc2)C(=O)c2ccccc2C1=O`, for which the GI50 in the assay with KM12 is 15.3 µM (inactive); with NCI-H23, 6.32 µM (inactive); in the assay on CAKI-1, 22.8 µM (inactive); in the assay on SW-620, 15.7 µM (inactive); in the assay with SF-268, 23.6 µM (inactive); in the assay with SN12C it was 11.8 µM (inactive). Also, the GI50 in the assay on SF-539 was 17.2 µM (inactive); in the assay with U-251, 9.04 µM (inactive); in the assay with DMS-273, 5.48 µM (inactive); in the assay on RPMI-8226, 19.5 µM (inactive); in the assay on SK-OV-3, 28.1 µM (inactive); in the assay on UO-31, 18 µM (inactive). The GI50 with SNB-19 is 17.5 µM (inactive); in the assay with M19-MEL, 1.64 µM (inactive); with KM-20L2, 23.4 µM (inactive).

As for `O=C1Cc2ccccc2N1/N=C\c1ccc([N+](=O)[O-])cc1`, the GI50 in the assay on KM12, in the assay on NCI-H23, with CAKI-1, in the assay with SW-620, in the assay on SF-268 and in the assay with SF-539 was > 100 µM (inactive) in each case. In addition, the GI50 with U-251, with DMS-273, in the assay with RPMI-8226, in the assay on SK-OV-3, in the assay on UO-31 and in the assay with SNB-19 was > 100 µM (inactive) each time. Further, the GI50 with M19-MEL and in the assay with KM-20L2 was > 100 µM (inactive) each time.

Consider `CC(C)N(C(=O)C12C3C4C1C1C2C3C41C(=O)N(C(C)C)C(C)C)C(C)C` (centres undefined), for which the GI50 with KM12, with NCI-H23, with CAKI-1, in the assay with SW-620, in the assay on SF-268 and with SN12C was > 50 µM (inactive) throughout. For the same molecule, the GI50 in the assay with SF-539, in the assay with U-251, in the assay with DMS-273, with RPMI-8226, in the assay with SK-OV-3 and in the assay with UO-31 was > 50 µM (inactive) throughout. Also, the GI50 with SNB-19, with M19-MEL and with KM-20L2 was > 50 µM (inactive) throughout.

For `CC(=O)N1CC2Nc3ccccc3C2CC1CO` (centres undefined), the GI50 in the assay with KM12, with NCI-H23, in the assay on CAKI-1, with SW-620, in the assay with SF-268 and with SN12C was > 100 µM (inactive) each time. For the same molecule, the GI50 in the assay with SF-539, in the assay with U-251, with DMS-273, in the assay on RPMI-8226, in the assay on SK-OV-3 and with UO-31 was > 100 µM (inactive) throughout. Moreover, the GI50 in the assay with SNB-19, in the assay on M19-MEL and with KM-20L2 was > 100 µM (inactive) each time.

On to `NC(=O)c1cn(Cc2ccccc2)c(=O)n1Cc1ccccc1`, for which the GI50 in the assay with KM12, in the assay on NCI-H23, with CAKI-1, with SW-620, in the assay with SF-268 and with SN12C was > 100 µM (inactive) in each case. Besides, the GI50 in the assay on SF-539, in the assay on U-251, with DMS-273, with RPMI-8226, with SK-OV-3 and in the assay on UO-31 was > 100 µM (inactive) in each case. The GI50 with SNB-19, with M19-MEL and with KM-20L2 was > 100 µM (inactive) in each case.

Regarding `CC1(C)Cc2c(oc3ncnc(N)c23)CS1`, the GI50 with KM12, with NCI-H23, in the assay on CAKI-1, with SW-620, in the assay with SF-268 and in the assay on SN12C was > 100 µM (inactive) in each case. In addition, the GI50 in the assay with SF-539 was > 100 µM (inactive); with U-251, > 100 µM (inactive); with DMS-273, > 100 µM (inactive); in the assay with RPMI-8226, > 100 µM (inactive); in the assay with SK-OV-3 it was > 100 µM (inactive); with UO-31 it was 49.2 µM (inactive). Also, the GI50 in the assay with SNB-19, with M19-MEL and in the assay with KM-20L2 was > 100 µM (inactive) throughout.

Regarding `CCCNC(=O)C1C(=O)C(=O)N(CCC)C1=O` (centres undefined), the GI50 in the assay with KM12, with NCI-H23, in the assay with CAKI-1, in the assay with SW-620, in the assay with SF-268 and in the assay on SN12C was > 100 µM (inactive) in each case. Further, the GI50 with SF-539, in the assay with U-251, with DMS-273, in the assay on RPMI-8226, in the assay with SK-OV-3 and in the assay on UO-31 was > 100 µM (inactive) throughout. Moreover, the GI50 in the assay on SNB-19, in the assay with M19-MEL and with KM-20L2 was > 100 µM (inactive) each time.

Regarding `N#CC(C(=O)CCC(=O)Nc1cccc(C(F)(F)F)c1)c1ccc(Cl)cc1` (centres undefined), the GI50 in the assay with KM12, in the assay with NCI-H23, in the assay on CAKI-1, in the assay on SW-620, with SF-268 and in the assay on SN12C was > 100 µM (inactive) each time. Further, the GI50 with SF-539, in the assay on U-251, in the assay with DMS-273, in the assay on RPMI-8226, in the assay with SK-OV-3 and in the assay on UO-31 was > 100 µM (inactive) in each case. In addition, the GI50 in the assay with SNB-19, in the assay with M19-MEL and in the assay with KM-20L2 was > 100 µM (inactive) throughout.

As to `CC1=C2C(=CC(C)(CO)C2O)C(=O)C(C)(O)C12CC2` (centres undefined), the GI50 in the assay with KM12 was 0.00228 µM (active); in the assay on NCI-H23 it was 0.00203 µM (active); with CAKI-1 it was 0.00367 µM (active); in the assay with SW-620 it was 0.00142 µM (active); with SF-268 it was 0.00114 µM (active); in the assay on SN12C it was 0.00705 µM (active). Besides, the GI50 is 0.00569 µM (active) with SF-539; 0.00102 µM (active) in the assay on U-251; 0.00162 µM (active) with DMS-273; 0.895 µM (active) in the assay on RPMI-8226; 0.005 µM (active) with SK-OV-3; 0.00457 µM (active) with UO-31. The GI50 with SNB-19 was 0.00474 µM (active); in the assay with M19-MEL it was 0.00337 µM (active); in the assay with KM-20L2, 0.00216 µM (active).

With `Cc1cccc(N(CC(=O)O)S(=O)(=O)c2ccccc2)c1`, the GI50 in the assay with KM12, in the assay on NCI-H23, with CAKI-1, in the assay on SW-620, in the assay with SF-268 and in the assay with SN12C was > 100 µM (inactive) each time. The GI50 in the assay with SF-539, in the assay with U-251, in the assay with DMS-273, in the assay on RPMI-8226, with SK-OV-3 and in the assay with UO-31 was > 100 µM (inactive) in each case. Further, the GI50 in the assay with SNB-19, in the assay with M19-MEL and with KM-20L2 was > 100 µM (inactive) throughout.
